The target of experiment [1] is T1, rat ASIC1a (Rattus norvegicus, UniProt P55926).
T1 construct: expressed in transfected cells
T1 sequence (P55926 1-526): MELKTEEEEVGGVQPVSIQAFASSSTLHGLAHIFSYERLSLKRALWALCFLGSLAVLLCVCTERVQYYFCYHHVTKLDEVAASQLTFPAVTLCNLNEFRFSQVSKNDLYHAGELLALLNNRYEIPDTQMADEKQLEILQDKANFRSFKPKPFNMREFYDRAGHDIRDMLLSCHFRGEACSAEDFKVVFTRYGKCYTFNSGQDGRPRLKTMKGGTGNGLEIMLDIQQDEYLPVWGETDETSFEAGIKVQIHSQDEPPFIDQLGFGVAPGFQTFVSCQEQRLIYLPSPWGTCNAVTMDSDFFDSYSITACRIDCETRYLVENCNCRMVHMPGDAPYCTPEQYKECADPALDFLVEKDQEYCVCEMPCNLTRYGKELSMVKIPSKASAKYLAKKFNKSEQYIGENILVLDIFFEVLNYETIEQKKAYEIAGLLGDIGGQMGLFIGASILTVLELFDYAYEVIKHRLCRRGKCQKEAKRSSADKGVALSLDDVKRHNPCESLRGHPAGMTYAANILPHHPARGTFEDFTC
Kind of experiment: pH dependence of steady-state desensitization (whole-cell patch clamp). Conditions: 10 nM PcTx1. In kind it is cell-based. How it is done: (§1) Chinese Hamster Ovary (CHO) cells stably expressing rat ASIC1a were cultured in Ham’s F12, supplemented with 10% FBS, 1% penicillin–streptomycin and 500 µg/mL G418 and incubated at 37 °C with 5% CO2. Transient transfections of rASIC1a and cASIC1 wild-type or mutant channels in CHO cells were performed with Lipofectamine 3000 (Thermo Fisher Scientific) according to the manufacturer’s recommendations. The green fluorescent protein (GFP) cDNA (at 1/10 the amount of channel cDNA) was co-transfected with channel cDNA to aid the identification of transfected cells under the microscope in patch clamp experiments. All cDNAs were sequence verified.
(§2) Cells were freshly dissociated with CellStripper (Corning) and dispersed in a chamber on the stage of an inverted microscope. Upon formation of the whole-cell conformation, the cell was lifted from the bottom of the chamber and placed at the tip of a tubing perfusing an extracellular solution containing (in mM): 149 NaCl, 2 CaCl2, 4 KCl, 1 MgCl2, 5 glucose, 10 HEPES, pH 7.4, 310 mOsm/L. Extracellular solutions at more basic or acidic pHs were made by titrating the above pH 7.4 solution with NaOH or HCl (5 mM MES was added to solutions at pH 6.0 and lower). Pipette electrodes were filled with an intracellular solution containing (in mM): 135 KCl, 4 MgATP, 0.3 Na2GTP, 10 EGTA, and 20 HEPES, pH 7.2, 290 mOsm/L.
(§3) All recordings were performed at room temperature using an Axopatch 200B amplifier and pClamp 11 software (Molecular Devices). Currents were measured by whole-cell patch clamp, digitized at 10 kHz and lowpass filtered at 2 kHz. Series resistance was 75% compensated. Responses were elicited by rapid perfusion of acidic solutions using the SF-77B Fast-Step Perfusion device (Warner Instruments) for 40 ms once every 30 s (unless indicated otherwise) and recorded till steady state was reached. The holding potential was 0 mV unless indicated otherwise.
(§4) Baseline values (i.e., current amplitudes at the conditioning pH) were subtracted to obtain responses evoked by the test pH. Responses were normalized for each cell before averaging (see figure legends for more detail on normalization for each type of experiment). Concentration–response data were fitted to a logistic function of the form: R = (A1–A2)/(1 + (C/C0)^h)+A2, where R is the normalized response, C is either pH or compound concentration, C0 is the pH/concentration at which half-maximal response occurs (pH50 or IC50), h is the Hill coefficient, and A1 and A2 are constants. Kinetic parameters were obtained by fitting the data with either a single or double exponential function. Fitted data are shown as solid, dashed, or dotted curves.
In general terms: Patch clamp records ionic current or voltage across a cell membrane.

The target of experiment [2] is T1, rat ASIC1a. Nature of the experiment: Whole-cell patch clamp: inhibition of acid-induced current in CHO cells stably expressing rat ASIC1a. The conditions noted are these: 30 µM. In kind it is cell-based. How it is done:
as §1, §2, §3, §4

Turning to PcTx1 [reference compound], the “pH50 of steady-state desensitization” value in the experiment with rat ASIC1a [1] was 7.81 ± 0.02.
As for `N=C(N)NC(=O)c1nc(Cl)c(N)nc1N` [amiloride, reference compound], the entries for the “block of pH 6.0-induced current” value at rat ASIC1a [2] (0 mV) and on rat ASIC1a [2] (−80 mV) were 62.3 ± 0.7% and 86.8 ± 1.2%, respectively.

Values taken from paper PMC7873226, “Molecular mechanism and structural basis of small-molecule modulation of the gating of acid-sensing ion channel 1” (Communications Biology, 2021).
